This note sets out measurements from patent publication US10562902B2, “IRAK4 inhibitor and use thereof” (BEIJING HANMI PHARMACEUTICAL CO., LTD., priority 2015, dated 2020).

By IC50 is commonly meant the concentration that inhibits the measured activity by half. A low value points to inhibition by little substance.

The target of this assay is IRAK4 kinase (Homo sapiens (Human), UniProt Q9NWZ3). In words: IRAK4 kinase activity inhibition assay. In kind it is biochemical. The following applies: ADP-Glo kinase assay, 10 μM ATP, MBP substrate. How it is done:
IRAK4 kinase (purchased from Life Technologies, Cat. No.: PR5612U) was diluted to 2 folds of the final concentration (the final concentration is […]) with reaction buffer (40 mM Tris-HC1, pH 7.5; 20 mM MgCl2; 0.1 mg/mL BSA; 1 mM DTT), and added to a 384-well plate at 5 μL/well. The test drugs were 10-fold serial diluted from 10 μM to set six concentration points and added to the test wells of the 384-well plate at 2.5 μL/well. After incubation for 10 min at 25° C., 10 μM of ATP and 0.1 μg/μL of an enzyme reaction substrate, myelin basic protein MBP (purchased from Signal Chem, Cat. No.: M42-51N) were added at 2.5 μL/well, and reacted at 25° C. for 60 minutes. After the reaction was completed, the kinase activity assay was performed using the ADP-Glo™ kinase assay kit (purchased from Promega, Cat. No.: V9102) according to the manufacture's instruction, i.e., 10 μL of ADP-Glo reaction reagent was first added and reacted at 25° C. for 40 minutes, 10 μL of the reaction mixture was taken and mixed with 10 μL of ADP-Glo detection reagent, and reacted at 25° C. for 30 minutes. The kinase activity was then detected, and the IC50 values of the test drugs were calculated.
On the technique in general: ADP-Glo first removes unused ATP, then detects ADP through luciferase.

Sequence of IRAK4 kinase (Q9NWZ3 whole entry): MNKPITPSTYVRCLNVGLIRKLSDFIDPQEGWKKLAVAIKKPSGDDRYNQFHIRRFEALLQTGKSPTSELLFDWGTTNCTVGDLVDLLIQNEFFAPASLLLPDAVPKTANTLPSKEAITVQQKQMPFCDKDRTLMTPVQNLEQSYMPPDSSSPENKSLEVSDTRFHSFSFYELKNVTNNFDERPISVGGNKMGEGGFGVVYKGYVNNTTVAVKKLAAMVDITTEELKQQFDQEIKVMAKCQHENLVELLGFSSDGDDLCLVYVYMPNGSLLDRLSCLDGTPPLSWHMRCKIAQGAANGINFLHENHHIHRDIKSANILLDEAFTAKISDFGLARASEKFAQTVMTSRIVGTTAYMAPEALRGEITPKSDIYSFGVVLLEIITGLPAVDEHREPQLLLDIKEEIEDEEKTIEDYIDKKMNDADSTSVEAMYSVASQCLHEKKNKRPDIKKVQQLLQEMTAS

`Cc1cc(Nc2nc(N[C@@H]3CCOC3)c3c(ccn3-c3cnn(C)c3)n2)sn1` [Example 20] registered an IC50 of 0.1 to 1 µM.

In the case of `Cc1cc(Nc2nc(OC3CCC(O)CC3)c3c(ccn3-c3cnn(C)c3)n2)sn1` (stereo not shown) [Example 67], the IC50 was in the range of 0.1 to 1 µM.

Consider `Cc1cc(Nc2nc(N(C)C3CCOCC3)c3c(ccn3-c3cnn(C)c3)n2)sn1` [Example 53, N^4-methyl-N^2-(3-methylisothiazol-5-yl)-5-(1-methyl-1H-pyrazol-4-yl)-N^4-(tetrahydropyran-4-yl)-5H-pyrrolo[3,2-d]pyrimidine-2,4-diamine], for which the half-maximal inhibitory concentration (IC50) was 0.1 to 1 µM.

With `CN(C)C(=O)c1csc(Nc2nc(OC3CCOCC3)c3c(ccn3-c3cnn(C)c3)n2)c1` [Example 171], the 50% inhibitory concentration (IC50) is at most 0.1 µM.

On to `Cc1cc(Nc2nc(OCc3ccccn3)c3c(ccn3-c3cnn(C)c3)n2)sn1` [Example 59], for which the IC50 lay in the range of 0.1 to 1 µM.

As for `CNC(=O)CCNc1nc(Nc2cc(C)ns2)nc2ccn(-c3cnn(C)c3)c12` [Example 6], the concentration for half-maximal inhibition (IC50) was 0.1 to 1 µM.

Turning to `CN(C)C(=O)c1csc(Nc2nc(O[C@H]3CCOC3)c3c(ccn3-c3cnn(C)c3)n2)c1` [Example 149], the half-maximal inhibitory concentration (IC50) was at most 0.1 µM.

`CNC(=O)c1cc(Nc2nc(O[C@H]3CCOC3)c3c(ccn3-c3cnn(C)c3)n2)cs1` [Example 159] showed an IC50 of at most 0.1 µM.

With `Cn1cc(Nc2nc(N[C@H]3CC[C@H](O)CC3)c3c(ccn3-c3cnn(C)c3)n2)cn1` [Example 46], the IC50 fell in the range of 0.1 to 1 µM.

The compound `Cc1cc(Nc2nc(N[C@H]3CCOC3)c3c(ccn3-c3cnn(C)c3)n2)sn1` [Example 21] gave an IC50 of 0.1 to 1 µM.

`Cn1cc(-n2ccc3nc(Nc4cnn(CCO)c4)nc(O[C@H]4CCOC4)c32)cn1` [Example 108]: the half-inhibitory concentration (IC50) was at most 0.1 µM.

`COCCNC(=O)c1csc(Nc2nc(O[C@H]3CCOC3)c3c(ccn3-c3cnn(C)c3)n2)c1` [Example 139] displayed a concentration for half-maximal inhibition (IC50) of at most 0.1 µM.

For the compound `CNC(=O)c1ccc(Nc2nc(Nc3cc(C)ns3)nc3ccn(-c4cnn(C)c4)c23)cc1` [Example 31], the IC50 fell in the range of 0.1 to 1 µM.

`Cn1cc(-n2ccc3nc(Nc4cn[nH]c4)nc(O[C@H]4CCOC4)c32)cn1` [Example 106] showed a half-maximal inhibitory concentration (IC50) of at most 0.1 µM.

The compound `CC(=O)N1CCCC(Oc2nc(Nc3cc(C)ns3)nc3ccn(-c4cnn(C)c4)c23)C1` (stereo not shown) [Example 70] came in with an IC50 of 0.1 to 1 µM.

Compound `Cc1cc(Nc2nc(OC3CCOCC3)c3c(ccn3-c3cccc(N(C)C)c3)n2)sn1` [Example 96] registered an IC50 of 1 to 10 µM.

The compound `Cn1cc(-n2ccc3nc(Nc4cc(C(=O)NCc5cccs5)cs4)nc(O[C@H]4CCOC4)c32)cn1` [Example 142] came in with an IC50 of 0.1 to 1 µM.

For the compound `CN(C)C(=O)c1cc(Nc2nc(O[C@H]3CCOC3)c3c(ccn3-c3cnn(C)c3)n2)cs1` [Example 163], the IC50 was at most 0.1 µM.

With `CNC(=O)c1csc(Nc2nc(O[C@H]3CCOC3)c3c(ccn3-c3cnn(C)c3)n2)n1` [Example 165], the IC50 was in the range of 1 to 10 µM.

`CC(C)Nc1nc(Nc2cnn(C3CCCCC3)c2)nc2ccn(-c3cnn(C)c3)c12` [Example 45, N^2-(1-cyclohexyl-1H-pyrazol-4-yl)-N^4-isopropyl-5-(1-methyl-1H-pyrazol-4-yl)-5H-pyrrolo[3,2-d]pyrimidin-2,4-diamine] showed an IC50 of 0.1 to 1 µM.

In turn, `Cn1cc(-n2ccc3nc(Nc4cc(C(=O)NC5CCOCC5)cs4)nc(O[C@H]4CCOC4)c32)cn1` [Example 148] returned an IC50 of at most 0.1 µM.

In turn, `COc1cncc(-n2ccc3nc(Nc4cc(C)ns4)nc(OC4CCOCC4)c32)c1` [Example 99] returned an IC50 of 0.1 to 1 µM.

Turning to `Cc1cc(Nc2nc(OC3CC(N4CCCCC4)C3)c3c(ccn3-c3cnn(C)c3)n2)sn1` (stereo not shown) [Example 62], the half-inhibitory concentration (IC50) is at most 0.1 µM.

Compound `Cc1cc(Nc2nc(OC3CCOCC3)c3c(ccn3-c3cncnc3)n2)sn1` [Example 103] came in with an IC50 of 0.1 to 1 µM.

On to `Cc1cc(Nc2nc(NCCN3CCOCC3)c3c(ccn3-c3cnn(C)c3)n2)sn1` [Example 10], for which the IC50 lay within 0.1 to 1 µM.

In turn, `Cc1cc(Nc2nc(NC(C)C)c3c(ccn3-c3cccnc3)n2)sn1` [Example 37] returned an IC50 of 0.1 to 1 µM.

Turning to `CN(C)C(=O)c1csc(Nc2nc(NC3CCOCC3)c3c(ccn3-c3cnn(C)c3)n2)c1` [Example 50], the IC50 lay within 0.1 to 1 µM.

Compound `Cc1cc(Nc2nc(OC3CCNCC3)c3c(ccn3-c3cnn(C)c3)n2)sn1` [Example 71] yielded a half-inhibitory concentration (IC50) of 0.1 to 1 µM.

Consider `Cn1cc(-n2ccc3nc(Nc4cc(C(N)=O)cs4)nc(O[C@H]4CCOC4)c32)cn1` [Example 132], for which the IC50 was at most 0.1 µM.

`Cc1cc(Nc2nc(N[C@H]3CC[C@H](O)CC3)c3c(ccn3-c3ccccc3)n2)sn1` [Example 33] showed an IC50 of 0.1 to 1 µM.

Regarding `Cc1cc(Nc2nc(N[C@@H]3C[C@H](CO)[C@@H](O)[C@H]3O)c3c(ccn3-c3cnn(C)c3)n2)sn1` [Example 19], the IC50 is at most 0.1 µM.

Consider `CCNC(=O)c1csc(Nc2nc(OCCOC)c3c(ccn3-c3cnn(C)c3)n2)c1` [Example 130], for which the IC50 is at most 0.1 µM.

The compound `CO[C@H]1CC[C@H](Nc2nc(Nc3cc(C)ns3)nc3ccn(-c4cnn(C)c4)c23)CC1` [Example 26] came in with an IC50 of at most 0.1 µM.

In turn, `CN(C)C(=O)c1cc(Nc2nc(NC3CCOCC3)c3c(ccn3-c3cnn(C)c3)n2)cs1` [Example 52] had a half-maximal inhibitory concentration (IC50) of 0.1 to 1 µM.

With `Cc1cc(Nc2nc(OCC3CCOC3)c3c(ccn3-c3cnn(C)c3)n2)sn1` (stereo not shown) [Example 58], the IC50 fell in the range of 0.1 to 1 µM.

In the case of `Cn1cc(-n2ccc3nc(Nc4ccccc4)nc(O[C@H]4CCOC4)c32)cn1` [Example 116], the IC50 was in the range of 0.1 to 1 µM.

Compound `Cn1cc(-n2ccc3nc(Nc4cc(C#N)cs4)nc(O[C@H]4CCOC4)c32)cn1` [Example 80] yielded an IC50 of 0.1 to 1 µM.

In turn, `Cn1cc(-n2ccc3nc(Nc4ccc5[nH]ncc5c4)nc(O[C@H]4CCOC4)c32)cn1` [Example 123] yielded an IC50 of at most 0.1 µM.

With `Cc1cc(Nc2nc(O[C@H]3CCOC3)c3c(ccn3-c3ccncc3)n2)sn1` [Example 100], the half-inhibitory concentration (IC50) was 0.1 to 1 µM.

`Cn1cc(-n2ccc3nc(Nc4ccc5c(c4)CNC5=O)nc(O[C@H]4CCOC4)c32)cn1` [Example 120] registered a 50% inhibitory concentration (IC50) of at most 0.1 µM.

Regarding `Cn1cc(-n2ccc3nc(Nc4cc5n(c4)CCNC5=O)nc(OC4CCOCC4)c32)cn1` [Example 175], the IC50 was in the range of 0.1 to 1 µM.

Compound `COc1cccc(-n2ccc3nc(Nc4cc(C)ns4)nc(OC4CCOCC4)c32)c1` [Example 94] gave a concentration for half-maximal inhibition (IC50) of 1 to 10 µM.

In turn, `Cn1cc(-n2ccc3nc(Nc4cc(C(=O)N[C@@H]5CCOC5)cs4)nc(O[C@H]4CCOC4)c32)cn1` [Example 146] yielded an IC50 of at most 0.1 µM.

`Cn1cc(-n2ccc3nc(Nc4cnn(CCF)c4)nc(O[C@H]4CCOC4)c32)cn1` [Example 107] returned an IC50 of at most 0.1 µM.

`CNC(=O)c1csc(Nc2nc(OC3CCOCC3)c3c(ccn3-c3cnn(C)c3)n2)c1` [Example 167] registered an IC50 of at most 0.1 µM.

Compound `Cn1cc(-n2ccc3nc(Nc4ccc(N5CCOCC5)cc4)nc(O[C@H]4CCOC4)c32)cn1` [Example 118] registered an IC50 of 0.1 to 1 µM.

Regarding `Cn1cc(-n2ccc3nc(Nc4ccc5ncsc5c4)nc(O[C@H]4CCOC4)c32)cn1` [Example 125], the half-maximal inhibitory concentration (IC50) was 0.1 to 1 µM.

The compound `CNC(=O)c1cc(Nc2nc(O[C@H]3CCOC3)c3c(ccn3-c3cnn(C)c3)n2)sn1` [Example 166] registered a half-inhibitory concentration (IC50) of at most 0.1 µM.

For the compound `Cn1cc(-n2ccc3nc(Nc4cc(C(=O)NCC5CCOCC5)cs4)nc(O[C@H]4CCOC4)c32)cn1` [Example 140], the half-inhibitory concentration (IC50) was at most 0.1 µM.

Regarding `CCNC(=O)c1cc(Nc2nc(OC3CCOCC3)c3c(ccn3-c3cnn(C)c3)n2)cs1` [Example 173], the IC50 is at most 0.1 µM.

As for `Cc1cc(Nc2nc(NC3CCC3)c3c(ccn3-c3cnn(C)c3)n2)sn1` [Example 12], the IC50 was 0.1 to 1 µM.

`CCNC(=O)c1csc(Nc2nc(OC3CCCC3)c3c(ccn3-c3cnn(C)c3)n2)c1` [Example 128] gave an IC50 of 0.1 to 1 µM.

`CC(C)NC(=O)c1csc(Nc2nc(O[C@H]3CCOC3)c3c(ccn3-c3cnn(C)c3)n2)c1` [Example 136] displayed a half-inhibitory concentration (IC50) of at most 0.1 µM.

`Cn1cc(-n2ccc3nc(Nc4cc(C(=O)NCCF)cs4)nc(O[C@H]4CCOC4)c32)cn1` [Example 137]: the IC50 is at most 0.1 µM.

On to `Cc1cc(Nc2nc(NC3CCCCC3)c3c(ccn3-c3cnn(C)c3)n2)sn1` [Example 22], for which the half-maximal inhibitory concentration (IC50) fell in the range of 0.1 to 1 µM.

For `Cn1cc(-n2ccc3nc(Nc4ccc(C#N)s4)nc(O[C@H]4CCOC4)c32)cn1` [Example 79], the IC50 was 0.1 to 1 µM.

`CC(=O)N[C@H]1CC[C@H](Nc2nc(Nc3cc(C)ns3)nc3ccn(-c4cnn(C)c4)c23)CC1` [Example 27] displayed a concentration for half-maximal inhibition (IC50) of 0.1 to 1 µM.

Turning to `Cc1cc(Nc2nc(OC3COC3)c3c(ccn3-c3cnn(C)c3)n2)sn1` [Example 61], the IC50 is at most 0.1 µM.

Regarding `CN1CCN(C(=O)c2csc(Nc3nc(O[C@H]4CCOC4)c4c(ccn4-c4cnn(C)c4)n3)c2)CC1` [Example 151], the half-maximal inhibitory concentration (IC50) was at most 0.1 µM.

`Cn1cc(-n2ccc3nc(Nc4cc(C(=O)NCCF)cs4)nc(OC4CCOCC4)c32)cn1` [Example 169]: the IC50 is at most 0.1 µM.

Regarding `COc1ccc(-n2ccc3nc(Nc4cc(C)ns4)nc(OC4CCOCC4)c32)cc1` [Example 95], the IC50 fell in the range of 1 to 10 µM.

The compound `Cc1cc(Nc2nc(NC(C)C)c3c(ccn3-c3cnn(C4CCOCC4)c3)n2)sn1` [Example 32] gave a concentration for half-maximal inhibition (IC50) of 0.1 to 1 µM.

In turn, `Cc1cc(Nc2nc(OC3CCOCC3)c3c(ccn3-c3ccoc3)n2)sn1` [Example 88] yielded an IC50 of 0.1 to 1 µM.

In turn, `Cc1cc(Nc2nc(O[C@@H]3CCOC3)c3c(ccn3-c3cnn(C)c3)n2)sn1` [Example 65] yielded a concentration for half-maximal inhibition (IC50) of at most 0.1 µM.
